# Test results taken from patent publication US6521609B1, “Use of CGRP antagonists and CGRP release inhibitors for combating menopausal hot flushes” (Boehringer Ingelheim Pharma KG, priority 1999, dated 2003).
# Test system: increased blood flow through the facial skin caused by endogenous CGRP
# Experiment: Trigeminal ganglion stimulation in marmosets: facial skin blood flow (laser Doppler)
# Assay type: in vivo, marmoset
# Conditions: anaesthetized marmosets, i.v. 5 minutes before trigeminal ganglion stimulation (10 Hz, 2 mA, 2 msec, 30 seconds)
# Method: The efficacy of the following test substances was characterised by determining the dose administered i.v. which reduces by 50% the increased blood flow through the skin of the face which has been brought about by endogenous CGRP:
# Marmosets of both sexes (300-400 g) are anaesthetized with pentobarbital (initially with 30 mg/kg, i.p., followed by infusion of 6 mg/kg/h, […].). The body temperature is maintained at 37° C. using a heating plate. Pancuronium is administered as a muscle relaxant (initially 1 mg/kg, 0.5 mg after each hour thereafter). The animal's head is secured in a stereotactical apparatus. After the skin on the head has been opened using a lengthwise incision, a small hole is drilled in the skull and a bipolar electrode (Rhodes SNES 100) is lowered into the trigeminal ganglion. […] The petrous bone serves as a guide for placing the electrode (CCX-Digital X-ray apparatus). The position of the electrode in the ganglion is monitored at the end of each experiment. The stimulation parameters are: 10 Hz, 2 mA, 2 msec, for 30 seconds. The blood flow in the micro-vessels of the facial skin is determined by laser Doppler flow measurement using a PeriFlux Laser Doppler System. The animals are exposed to 2 to 3 stimulation periods at intervals of 30 minutes in each case. The first stimulation serves as a reference value for the other stimulations. The test substances are administered i.v. 5 minutes before the 2nd and 3rd stimulation periods.
row,SMILES,50% dose (i.v. dose which reduces by 50% the increased blood flow through the facial skin caused by endogenous CGRP) [mg/kg]
1,Nc1c(Br)cc(C[C@@H](NC(=O)N2CCC(N3Cc4ccccc4NC3=O)CC2)C(=O)N2CCC(N3CCCCC3)CC2)cc1Br [AM],0.046
2,CN(C)CCc1c[nH]c2ccc(C[C@H]3COC(=O)N3)cc12 [DB],0.035
3,CNS(=O)(=O)Cc1ccc2[nH]cc(CCN(C)C)c2c1 [DA],0.280
